Patent publication US20220031697A1, “Dose and regimen for an hdm2-p53 interaction inhibitor in hematological tumors” (Novartis AG, priority 2017, published 2022)
Like-named read-outs stand apart in the source and are kept apart here.

What was measured:
[1] = test system: advanced TP53 wild-type (WT) leukemias; assay type: in vivo, human
[2] = test system: human SJSA-1 (osteosarcoma) xenograft; assay: TGI PK/PD modelling, xenograft rat; assay type: in vivo; settings: human SJSA-1 xenograft rat
Experimental: Line at 120 ng/mL=95% tumor regression from human SJSA-1 xenograft rat. […] Calculation of average dose level (mg/day):
(§1) To further support the 45 mg for HDM201, compartmental PK modeling was used to estimate the individual average concentration during cycle 1 for patients with hematological tumors treated at 45 mg on regimen 2C (FIG. 2). For all patients with measured PK, the estimated average drug concentrations during cycle 1 were above the most conservative average tumor stasis concentration of about 41 ng/mL per cycle determined from PKPD modeling of preclinical data (human SJSA-1 xenograft rat model).

[3] = test system: human HSAX2655 (liposarcoma) PDX; assay: TGI PK/PD modelling, PDX rat; assay type: in vivo
Clinical PK = assay type: in vivo, human
Experimental: Pharmacokinetic data have been evaluated throughout the course of the clinical study. […] Furthermore, an integrated analysis of all available HDM201 concentrations was conducted using a population approach. The PK of HDM201 was best described by a 1-compartment PK model with a delayed zero- and first-order absorption process, and a linear clearance. Body weight was identified as a statistically significant covariate on apparent central volume of distribution (Vc/F), in which Vc/F increased with increasing body weight.
as §1

[4] = Regimen 1A 250 mg, cut-off 15 Jan. 2018
[5] = Regimen 1A 250 mg, n=10, cut-off 15 Jan. 2018
[6] = Regimen 1B 120 mg, n=23, cut-off 15 Jan. 2018
[7] = Regimen 2C 45 mg, n=25, cut-off 15 Jan. 2018

## COc1ncc(-c2nc3c(n2C(C)C)[C@H](c2ccc(Cl)cc2)N(c2cc(Cl)cn(C)c2=O)C3=O)c(OC)n1 [HDM201, (S)-5-(5-Chloro-1-methyl-2-oxo-1,2-dihydro-pyridin-3-yl)-6-(4-chloro-phenyl)-2-(2,4-dimethoxy-pyrimidin-5-yl)-1-isopropyl-5,6-dihydro-1H-pyrrolo[3,4-d]imidazol-4-one]
[1]; CR patient, 1A 250 mg
  Count recovery time from C1D1: 48 days
  Duration of CR/CRi: 50 days
  Time to CR/CRi: 7 weeks
[1]; CR patient, 1A 400 mg
  Count recovery time from C1D1: 40 days
  Duration of CR/CRi: 23 days
  Time to CR/CRi: 6 weeks
[1]; CR patient, 2C 45 mg
  Count recovery time from C1D1: 32 days
  Duration of CR/CRi: 152 days
  Time to CR/CRi: 5 weeks
[1]; CRi patient, 1B 150 mg
  Duration of CR/CRi: 51 days
  Time to CR/CRi: 11 weeks
[1]; [4]
  Duration of CR/CRi: 50 to 125 days
  Time to CR/CRi: 24 to 50 days
[1]; [5]
  CR (patients): 1
  CRi (patients): 1
[1]; Regimen 1A (n = 15)
  BOR: CR: 2 (13) n (%)
  BOR: CRi: 0 (0) n (%)
  ORR (CR + CRi + PR): 2 (13) n (%)
[1]; Regimen 1B 120 mg, DoR censored, cut-off 15 Jan. 2018
  Duration of CR/CRi: 1 day (DoR
[1]; Regimen 1B 120 mg, cut-off 15 Jan. 2018
  Time to CR/CRi: 30 days
[1]; [6]
  CR (patients): 1
  CRi (patients): 0
[1]; Regimen 1B (n = 6)
  BOR: CR: 0 (0) n (%)
  BOR: CRi: 1 (17) n (%)
  ORR (CR + CRi + PR): 1 (17) n (%)
[1]; Regimen 2A (2 weeks on/2 week off), doses up to 30 mg
  Clinical activity: without evidence of clinically meaningful activity
[1]; Regimen 2A (n = 7)
  BOR: CR: 0 (0) n (%)
  BOR: CRi: 0 (0) n (%)
  ORR (CR + CRi + PR): 0 (0) n (%)
[1]; Regimen 2C 45 mg
  Count recovery time of the patient with CR: 32 days
[1]; Regimen 2C 45 mg, 7 patients with post-baseline assessment
  Overall response rate: 57.1%
[1]; Regimen 2C 45 mg, cut-off 15 Jan. 2018
  Time to CR/CRi: 34 to 49 days
[1]; [7]
  CR (patients): 2
  CRi (patients): 4
[1]; Regimen 2C 45 mg, one of three CRi patients
  Duration of CRi: 40 days
[1]; Regimen 2C 45 mg, one patient
  Duration of complete response: 152 days
[1]; Regimen 2C (n = 7)
  BOR: CR: 1 (14) n (%)
  BOR: CRi: 3 (43) n (%)
  ORR (CR + CRi + PR): 4 (57) n (%)
[1]; Regimen 2C, AML patients, FIG. 1
  Best percentage change in blast percentage in bone marrow (BM) aspirate: strong efficacy
[1]; Total (N = 35)
  BOR: CR: 3 (9) n (%)
  BOR: CRi: 4 (11) n (%)
  ORR (CR + CRi + PR): 7 (20) n (%)
[2]
  Concentration for 95% tumor regression: 120 ng/mL
[3]
  Average concentration for tumor stasis: 19 ng/mL
Clinical PK; 45 mg regimen 2C, all patients with measured PK, compartmental PK modeling
  Estimated average drug concentration during cycle 1: > 41 ng/mL
Clinical PK; over the dose range studied, preliminary assessment
  Dose proportionality of PK (AUClast and Cmax): approximately dose proportional
